Values joined by “and” are separate entries in the source; they are usually repeats but may differ in a detail not shown here. Equal entries are not always repeated. Where two headings read alike, the source gives them in different places.

Results on four molecules are retold here after article PMC11267533, “Ligandability at the Membrane Interface of GPx4 Revealed through a Reverse Micelle Fragment Screening Platform” (JACS Au, 2024).

For data set [1], the target named is T1, GPx4 embedded in a mmRM (membrane-bound GPx4) (Homo sapiens, UniProt P36969, U73G).
T1 construct: Truncated U46G-GPx4 with a TEV cleavable poly-histidine tag was inserted into vector; poly-histidine tag with TEV cleavage site; host or cells: BL21 (DE3) E. coli
T1 sequence (P36969 1-170 isoform P36969-2 U46G): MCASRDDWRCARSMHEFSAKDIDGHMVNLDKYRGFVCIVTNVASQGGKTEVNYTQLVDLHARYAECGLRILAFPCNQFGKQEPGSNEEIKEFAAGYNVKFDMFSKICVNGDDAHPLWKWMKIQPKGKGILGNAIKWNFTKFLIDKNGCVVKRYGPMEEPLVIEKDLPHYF
The experiment in a line: NMR (15N-HSQC) titration of fragments against GPx4 embedded in DLPC/DPC mmRM, apparent Kd. Format: binding. The settings on record: ± standard error of global Kd fit. The source says:
To assess whether the fragment hits are bound specifically to GPx4 and to calculate affinity, we performed NMR-based titrations. Chemical shift changes that approach saturation in a structurally localized manner target indicate specific binding.[24] This allows true positive hits to be separated from false positives and weak or nonspecific binders. Additionally, NMR-based titrations allow for the extraction of a binding affinity (Kd). To calculate apparent Kd values, CSP cutoffs were used to isolate the resonances with most shifting using 1 standard deviation above the average CSP. All 14 fragments identified from the deconvolutions were titrated up to 400 μM or 1 mM if needed. Of the 14, 9 had apparent Kds less than 1 mM and were identified as hits. Observed here is a 0.47% hit rate with best affinities in the μM range for the membrane-bound form of GPx4 and is consistent with ligandable and potentially druggable targets.[14],[57] […] The remaining five fragments, 10–14, were ruled out as weaker (>∼1 mM) or nonspecific binders. Weak or nonspecific binding could indicate that fragments partitioning to the mmRM surface and perturb the protein spectrum through a simple change in the chemical environment at the interface, among other possible nonspecific effects. […] We note that the weaker and nonspecific fragments were only eliminated due to interaction modes that are too weak or unproductive for advancement toward inhibitors; yet, binding was nevertheless detected. […] We note here that apparent Kd values reported in this study account for a total amount of fragment and protein within the mmRM sample and are not corrected for any potential concentrating effect due to localization of fragment to the mmRM surface or water phase.
NMR samples were prepared with ^15N-isotopically labeled protein with 10% v/v of d-pentane as the lock solvent (Sigma-Aldrich, St. Louis, MO). All NMR spectra were collected at 25 °C on a 700 MHz Bruker Avance III instrument. All NMR spectra were processed using NMRPipe[66] and analyzed using NMRFAM-Sparky.[67] Chemical shifts for GPx4 (BMRB 50955) were assigned from those previously published.[52] Chemical shift perturbations from ^15N-HSQC spectra were calculated using the following formula [drawing 1] where Δ^1H and Δ^15N are the changes in ^1H and ^15N chemical shifts, respectively.
The 14 fragments isolated from deconvolutions were purchased from Life Chemicals (fragments 1, 4, 6, and 11, and 12–14), Combi-Blocks (2, 3, 5, 9, and 10), or ChemBridge Hit2Lead (7 and 8). All fragment 1 and 5 analogues were also purchased from ChemBridge Hit2Lead. Fragments and analogues purchased from Life Chemicals and Hit2Lead are 90+% pure, while the fragments purchased from Combi-Blocks ranged from 95 to 97% pure. The day prior to the titration, a double-volume sample of encapsulated GPx4 was made before being split up into two separate vials. Half of the sample was added to the vial containing predried fragment corresponding to 400 μM or 1 mM. […] If they were, then the two samples were mixed to produce varying concentrations and to measure a titration curve. The top-shifting resonances were determined by calculating the average CSP at 400 μM or 1 mM and 1 and 2 standard deviations (σ) above that average. The CSP for the resonance at each fragment concentration was extracted and fit to a curve using an affinity equation that accounts for ligand depletion [drawing 2]
Any resonance producing a curve with an R^2 below 0.85 was removed, and the remaining resonances were then used to fit a global apparent Kd curve for the fragment hit. Standard error for Kd from the global fit of all of the selected residues is reported.

A short description of data set [2]: Fragment partitioning in DLPC/DPC mmRMs by 2D 1H-1H NOESY. The settings on record: 5 mM fragment, deuterated pentane and hexanol, no GPx4. It counts as physicochemical. On the procedure: We sought to understand the potential membrane partitioning of these fragments by evaluating their behavior in mmRMs, again using fragments 1, 5, and 6 as our benchmarks. To evaluate fragment partitioning in the mmRM system, 2D ^1H–^1H NOESY experiments were performed, which report on the spatial proximity of intra- and intermolecular nuclei. […] The mmRMs were constructed from deuterated pentane and hexanol to reduce solvent signal and associated NOESY artifacts, which were still present, but NOESY measurements were possible.[60] […] Fragment 5 was the most hydrophobic fragment hit from this screen with a predicted cLog D of ∼2. […] A lack of NOEs to pentane is due to the necessity of using deuterated pentane for artifact reduction and attempts to directly observe solvent NOEs failed. The most hydrophilic fragment, fragment 6 with a predicted cLog D of about −2, is expected to predominantly have intermolecular interactions with the water phase of the mmRM (Figures 5c and S4c). However, interference from the water peak introduced streaking and precluded the visualization of clear cross-peaks.
Partitioning coefficients for fragment hits and analogues were calculated using a Marvin Log D calculator (Chemaxon) and were used to prioritize fragments for 2D NOESYs. mmRMs were premade as previously described and loaded with 5 mM dried fragment 1, 5, or 6 before shaking overnight. A high concentration of fragments is needed for these experiments to observe the intermolecular NOEs between the fragments and the membrane model components. For the DHPC/DMPC samples, the q = 1.0 bicelles were constructed routinely,[55] as described in the Supporting Information, with an additional step to ensure the complete removal of water before experimentation. An aliquot of buffer (100 mM Bis-Tris pH 6.0, 100 mM NaCl, and 10 mM DTT) was frozen and freeze-dried overnight to remove residual water. The dried buffer was then resuspended in 100% D2O, mixed, and frozen before another round of freeze-drying. […]

[3] abbreviates: Table 1, GPx4 in DLPC/DPC mmRM, NMR titration up to 400 μM or 1 mM, read-out: Kd (apparent).
The mark [4] stands for this setting: Table 2, analogues of fragment 5, GPx4 in mmRM, read-out: Apparent Kd.

As for `COCCNCc1ccncc1.Cl` [Fragment 6, (2-methoxyethyl)(4-pyridinylmethyl)amine hydrochloride], the Kd in data set [1] (setting [3]) amounted to 230 ± 60 µM. Further, in data set [2], the “Partitioning in mmRM (intermolecular NOEs)” value (shortened to “Partitioning in mmRM”) was “prefers to reside in the water core of the mmRM”.
Regarding `O=c1cc(Nc2ccccc2)cc[nH]1` [Fragment 1, 4-(phenylamino)-1,2-dihydropyridin-2-one], the Kd in data set [1] (setting [3]) worked out at 105 ± 30 µM. Further, the “Partitioning in mmRM” value in data set [2] is reported as “clear NOE cross-peaks to the surfactant shell”.
On to `O=c1oc2ccc(O)cc2s1` [Fragment 5, 5-hydroxy-1,3-benzoxathiol-2-one], for which the Kd in data set [1] (setting [3]) and in data set [1] (setting [4]) was 220 ± 90 µM each time. Besides, the “Partitioning in mmRM” value in data set [2] is “the majority of the fragment must reside in the alkane phase of the reverse micelle”.
With `O=c1oc2c(-c3ccc(Cl)c(Cl)c3)cc(O)cc2s1` [Analog 5.5], the Kd in data set [1] (setting [4]) is ~30 µM and 30 µM.
